Assay type in all cases: binding
Assay [1] addresses T1, human recombinant CAVA (Homo sapiens, UniProt P35218).
T1 construct: Most isozymes were truncated, and only the catalytic domains of the proteins were produced; made in house; host or cells: bacterial expression system
As to the kind of experiment: Fluorescence-based thermal shift assay (FTSA), CAVA. The following applies: 37 °C, pH 7.0. The procedure:
(§1) The binding affinities of the four NIR-fluorescent compounds to 12 catalytically active recombinant CA isozymes were determined by the fluorescence-based thermal shift assay (FTSA), and the dissociation constants (Kd’s) at physiological pH (pH 7.0) and 37 °C are listed in Table 1.
(§2) All 12 catalytically active human CA isozymes were prepared recombinantly as previously described. Most isozymes were truncated, and only the catalytic domains of the proteins were produced.[9],[56] All isozymes were expressed in a bacterial expression system except that CAIX was expressed in mammalian cells. The proteins were chromatographically purified via immobilized metal affinity chromatography, ion-exchange, or p-aminomethylbenzenesulfonamide-sepharose affinity chromatography. Protein purity was confirmed by SDS-PAGE, and MW was confirmed by mass spectrometry with 1 Da precision, as predicted from theoretical protein sequence.
(§3) The fluorescence-based thermal shift assay (FTSA) was used to determine the binding affinity of compounds for all catalytically active CA isozymes. The assay is based on the thermal stabilization of proteins by bound ligands and distinguishes itself in its ability to determine extremely high affinity (picomolar Kd) of compound binding to CAIX. The experiments were performed with a QIAGEN Rotor-Gene Q instrument using either the blue channel (365 ± 20 nm excitation and 460 ± 15 nm emission detection) or the green channel (470 ± 10 nm excitation and 510 ± 5 nm detection). The protein solution, in the absence and presence of various compound concentrations ranging from 3 to 200 μM (2× dilutions), was heated from 25 to 99 °C (heating rate, 1 °C/min). The CA isozyme melting temperature Tm was determined by following the fluorescence of 8-anilino-1-naphthalenesulfonate (ANS) or Glomelt dye. The samples consisted of 5 μM protein (or 10 μM CAIV), different concentrations of the tested compound, and 50 μM ANS or 200× diluted Glomelt in 50 mM sodium phosphate buffer (at pH 7.0) containing 100 mM sodium chloride and 2–4% (v/v) dimethyl sulfoxide. To obtain the dissociation constant (at 37 °C), data analysis was performed, and the curves were fit using the Thermott Web server.[57]

For assay [2], the target named is T2, human recombinant CAXIII (Homo sapiens, UniProt Q8N1Q1).
T2 construct: made in house; host or cells: bacterial expression system
As to the kind of experiment: Fluorescence-based thermal shift assay (FTSA), CAXIII. The settings on record: 37 °C, pH 7.0. The procedure:
as §1, §2
as §3, with “To obtain the dissociation constant (at 37 °C), data analysis was performed, and the curves were fit using the Thermott Web server.[57]” left out

Assay [3] has as its target T3, human recombinant CAII (Homo sapiens, UniProt P00918).
T3 construct: made in house; host or cells: bacterial expression system
Nature of the assay: Fluorescence-based thermal shift assay (FTSA), CAII. The settings on record: 37 °C, pH 7.0. The method, then: as §1, §2, §3

The target in assay [4] is T4, human recombinant CAVI (Homo sapiens, UniProt P23280).
T4 construct: Most isozymes were truncated, and only the catalytic domains of the proteins were produced; made in house; host or cells: bacterial expression system
As to the kind of experiment: Fluorescence-based thermal shift assay (FTSA), CAVI. The settings on record: 37 °C, pH 7.0. The method, then:
as §1, §2, §3

The target of assay [5] is T5, human recombinant CAXII (Homo sapiens, UniProt O43570).
T5 construct: Most isozymes were truncated, and only the catalytic domains of the proteins were produced; made in house; host or cells: bacterial expression system
As to the kind of experiment: Fluorescence-based thermal shift assay (FTSA), CAXII. The following applies: 37 °C, pH 7.0. The procedure: as §1, §2, §3

The target in assay [6] is T6, human recombinant CAVII (Homo sapiens, UniProt P43166).
T6 construct: made in house; host or cells: bacterial expression system
Nature of the assay: Fluorescence-based thermal shift assay (FTSA), CAVII. The following applies: 37 °C, pH 7.0. The method, then: as §1, §2
as §3, with “To obtain the dissociation constant (at 37 °C), data analysis was performed, and the curves were fit using the Thermott Web server.[57]” left out

Assay [7] has as its target T7, human recombinant CAIV (Homo sapiens, UniProt P22748).
T7 construct: Most isozymes were truncated, and only the catalytic domains of the proteins were produced; made in house; host or cells: bacterial expression system
As to the kind of experiment: Fluorescence-based thermal shift assay (FTSA), CAIV. The settings on record: 37 °C, pH 7.0. The procedure:
as §1, §2, §3

The target in assay [8] is T8, human recombinant CAIX (Homo sapiens, UniProt Q16790).
T8 construct: Most isozymes were truncated, and only the catalytic domains of the proteins were produced; made in house; host or cells: mammalian cells
As to the kind of experiment: Fluorescence-based thermal shift assay (FTSA), CAIX. The settings on record: 37 °C, pH 7.0. The method, then: as §1, §2, §3

Assay [9] addresses T9, cell-expressed CAIX (HeLa cells grown under hypoxia) (Homo sapiens, UniProt Q16790).
T9 construct: The cells were grown under hypoxia and not transfected; endogenous in cells; host or cells: HeLa cells, 3 days under hypoxia, not transfected
Nature of the assay: Competition assay with fluorescein-labeled GZ19-32 in live hypoxia-grown HeLa cells. The settings on record: 10 nM GZ19-32, Pt 2 nM CAIX. The method, then:
Hypoxia-grown HeLa cell culture expressed approximately 2 nM CAIX, which was quantified by fluorescein-labeled GZ19-32 added at a constant concentration of 10 nM throughout the assay. The four NIR-fluorescent compounds were dosed and competed with the GZ19-32 compound in a dose-dependent manner. At high concentrations, all four compounds fully outcompeted the fluorescein-bearing compound yielding nice competition curves (Figure 2B). Each curve was fit using the total protein CAIX (Pt) value of 2 nM, and the Kd of GZ19-32 was 200 pM. The dissociation constants for each NIR-fluorescent compound were 4 nM for GZ21-19, 6 nM for GZ22-1, 1.5 nM for GZ22-4, and 15 nM for AZ21-6. Thus, compound affinities were similar but not identical, despite having identical headgroups. […] The affinity of fluorescein-bearing GZ19-32 was the highest of all, around 200 pM.
For the competition assay, live cells were seeded in 12-well plates and incubated for 3 days under hypoxia. 200 μL of serially diluted NIR-fluorescent compound (12 2-fold dilution steps) in the PBS medium, starting from 5120 nM (5120, 2560, 1280,..., 0 nM), was mixed with 200 μL of 20 nM GZ19-32 solution (PBS). After the removal of growth medium, 200 μL obtained solutions were applied to the cells grown in 12-well culture plates. Plates were incubated in the CO2 incubator at normoxia for 20 min. The solution was removed, and cells were washed 3 times for 1–2 min with 400 μL of PBS. Then, 180 μL of TrypLe express enzyme (Thermo Fisher) was added to each well and incubated in the normoxia chamber for 10 min. Then, 20 μL of Defined Trypsin Inhibitor solution (Thermo Fisher) was added and cells were resuspended by pipetting. 150 μL of the suspension from each well was transferred to Thermo Scientific Nunc MicroWell 96-Well Optical-Bottom Plates for fluorescence and absorbance measurements. 485 nm excitation and 520 nm emission wavelengths were used to measure fluorescence on a Synergy HTX, BioTek plate reader. 650 nm wavelength was used for absorbance measurements.

Assay [10] concerns the target T10, human recombinant CAIII (Homo sapiens, UniProt P07451).
T10 construct: made in house; host or cells: bacterial expression system
Nature of the assay: Fluorescence-based thermal shift assay (FTSA), CAIII. The settings on record: 37 °C, pH 7.0. The procedure:
as §1, §2, §3

Several values for one entry are separate records, joined by “and”; a condition that tells them apart may be missing. Equal entries are not always repeated.

T5 sequence (O43570 30-289 limits assumed): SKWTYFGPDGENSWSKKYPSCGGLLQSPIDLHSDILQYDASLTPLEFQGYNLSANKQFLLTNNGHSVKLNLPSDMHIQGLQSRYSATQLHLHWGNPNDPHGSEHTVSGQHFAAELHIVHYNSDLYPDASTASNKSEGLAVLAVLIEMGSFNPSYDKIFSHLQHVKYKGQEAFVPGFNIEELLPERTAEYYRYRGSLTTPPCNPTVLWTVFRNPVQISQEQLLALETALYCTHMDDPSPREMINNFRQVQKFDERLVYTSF
T1 sequence (P35218 39-296 limits assumed): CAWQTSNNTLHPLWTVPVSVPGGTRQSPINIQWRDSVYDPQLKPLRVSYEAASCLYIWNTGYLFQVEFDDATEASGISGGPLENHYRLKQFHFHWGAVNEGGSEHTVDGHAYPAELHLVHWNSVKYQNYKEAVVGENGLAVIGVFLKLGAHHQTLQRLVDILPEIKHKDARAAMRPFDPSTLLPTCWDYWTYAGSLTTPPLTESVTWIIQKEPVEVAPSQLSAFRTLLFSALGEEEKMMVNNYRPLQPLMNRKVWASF
T4 sequence (P23280 21-278 limits assumed): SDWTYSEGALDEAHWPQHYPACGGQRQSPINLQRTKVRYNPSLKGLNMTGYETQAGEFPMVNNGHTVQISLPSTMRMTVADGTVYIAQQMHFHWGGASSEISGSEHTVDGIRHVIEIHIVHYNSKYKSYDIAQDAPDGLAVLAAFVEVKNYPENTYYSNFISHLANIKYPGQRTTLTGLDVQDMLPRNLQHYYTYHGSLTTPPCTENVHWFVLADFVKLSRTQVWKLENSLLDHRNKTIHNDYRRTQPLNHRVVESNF
T10 sequence (P07451 whole entry): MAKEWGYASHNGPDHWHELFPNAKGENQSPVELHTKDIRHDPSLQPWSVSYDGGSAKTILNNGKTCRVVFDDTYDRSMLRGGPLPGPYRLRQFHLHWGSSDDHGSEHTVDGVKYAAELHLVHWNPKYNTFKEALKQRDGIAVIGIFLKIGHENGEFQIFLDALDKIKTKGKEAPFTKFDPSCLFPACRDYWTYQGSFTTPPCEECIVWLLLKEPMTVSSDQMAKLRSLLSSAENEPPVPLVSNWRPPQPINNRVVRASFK
T7 sequence (P22748 21-285 limits assumed): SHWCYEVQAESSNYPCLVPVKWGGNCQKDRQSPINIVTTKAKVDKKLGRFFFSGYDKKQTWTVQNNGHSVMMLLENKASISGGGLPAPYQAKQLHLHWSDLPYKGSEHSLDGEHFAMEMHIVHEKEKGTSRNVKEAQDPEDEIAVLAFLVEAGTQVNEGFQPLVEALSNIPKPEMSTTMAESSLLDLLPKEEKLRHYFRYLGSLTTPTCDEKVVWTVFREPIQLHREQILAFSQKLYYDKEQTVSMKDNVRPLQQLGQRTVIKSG
T6 sequence (P43166 whole entry): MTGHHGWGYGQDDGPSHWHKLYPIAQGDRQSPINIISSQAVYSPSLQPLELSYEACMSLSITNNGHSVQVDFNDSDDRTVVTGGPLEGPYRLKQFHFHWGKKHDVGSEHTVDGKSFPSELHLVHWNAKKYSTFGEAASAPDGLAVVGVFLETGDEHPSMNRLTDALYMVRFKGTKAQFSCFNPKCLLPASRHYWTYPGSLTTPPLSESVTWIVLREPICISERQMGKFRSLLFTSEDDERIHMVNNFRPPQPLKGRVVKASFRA
T2 sequence (Q8N1Q1 whole entry): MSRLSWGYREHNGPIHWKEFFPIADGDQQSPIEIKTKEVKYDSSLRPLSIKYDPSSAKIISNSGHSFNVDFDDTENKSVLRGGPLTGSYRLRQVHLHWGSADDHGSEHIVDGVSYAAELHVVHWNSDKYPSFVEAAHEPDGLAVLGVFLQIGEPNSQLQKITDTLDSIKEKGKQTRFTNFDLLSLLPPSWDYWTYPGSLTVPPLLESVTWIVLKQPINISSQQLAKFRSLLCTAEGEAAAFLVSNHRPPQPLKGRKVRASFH

`CC1(C)C(/C=C/C2=C(NCCCOCCOCCOCCCNC(=O)CCC(=O)NCCS(=O)(=O)c3c(F)c(F)c(S(N)(=O)=O)c(F)c3NC3CCCCCCC3)C(=C/C=C3\N(CCCCS(=O)(=O)[O-])c4ccccc4C3(C)C)/CCC2)=[N+](CCCCS(=O)(=O)[O-])c2ccccc21.[Na+]` [AZ21-6, Sodium 4-((Z)-2-((E)-2-(2-((1-((2-(Cyclooctylamino)-3,5,6-trifluoro-4-sulfamoylphenyl)sulfonyl)-4,7-dioxo-12,15,18-trioxa-3,8-diazahenicosan-21-yl)amino)-3-((E)-2-(3,3-dimethyl-1-(4-sulfonatobutyl)-3H-indol-1-ium-2-yl)vinyl)cyclohex-2-en-1-ylidene)ethylidene)-3,3-dimethylindolin-1-yl)butane-1-sulfonate]: the Kd in [1] is 10000 nM; in assay [2], 10 nM; in assay [3], 2000 nM; in assay [4], 1000 nM; in [5], 50 nM; in [6], 60 nM. The dissociation constant Kd in assay [7] came to 8000 nM; in [8] it was 0.3 nM; in assay [9], 15 nM; in assay [10] it was 30000 nM.
Regarding `CC1(C)C(/C=C/C2=C(Oc3cccc(CC(=O)NCCCOCCOCCOCCCNC(=O)CCS(=O)(=O)c4c(F)c(F)c(S(N)(=O)=O)c(F)c4NC4CCCCCCC4)c3)C(=C/C=C3\N(CCCCS(=O)(=O)[O-])c4ccccc4C3(C)C)/CCC2)=[N+](CCCCS(=O)(=O)[O-])c2ccccc21.[Na+]` [GZ21-19, Sodium 4-((Z)-2-((E)-2-(2-(3-(20-((2-(Cyclooctylamino)-3,5,6-trifluoro-4-sulfamoylphenyl)sulfonyl)-2,18-dioxo-7,10,13-trioxa-3,17-diazaicosyl)phenoxy)-3-((E)-2-(3,3-dimethyl-1-(4-sulfonatobutyl)-3H-indol-1-ium-2-yl)vinyl)cyclohex-2-en-1-ylidene)ethylidene)-3,3-dimethylindolin-1-yl)butane-1-sulfonate], the dissociation constant Kd in assay [1] stood at 2000 nM; in assay [3], 400 nM; in [4] it was 700 nM; in assay [5], 60 nM; in [7], 2000 nM; in assay [8], 0.2 nM. For the same compound, the Kd in [9] was found to be 4 nM; in assay [10] it was 20000 nM.
On to `CC1(C)C(/C=C/C2=C(Oc3ccc(CCC(=O)NCCCOCCOCCOCCCNC(=O)CCS(=O)(=O)c4c(F)c(F)c(S(N)(=O)=O)c(F)c4NC4CCCCCCC4)cc3)C(=C/C=C3\N(CCCCS(=O)(=O)[O-])c4ccccc4C3(C)C)/CCC2)=[N+](CCCCS(=O)(=O)[O-])c2ccccc21.[Na+]` [GZ22-1, Sodium 4-((Z)-2-((E)-2-(2-(4-(21-((2-(Cyclooctylamino)-3,5,6-trifluoro-4-sulfamoylphenyl)sulfonyl)-3,19-dioxo-8,11,14-trioxa-4,18-diazahenicosyl)phenoxy)-3-((E)-2-(3,3-dimethyl-1-(4-sulfonatobutyl)-3H-indol-1-ium-2-yl)vinyl)cyclohex-2-en-1-ylidene)ethylidene)-3,3-dimethylindolin-1-yl)butane-1-sulfonate], for which the Kd in assay [1] stood at 1000 nM; in assay [2], 8 nM; in assay [3] it was 20 nM; in assay [4], 700 nM; in [5], 200 nM; in assay [6], 30 nM. Besides, the Kd in [7] came out at 7000 nM; in [8], 0.3 nM; in assay [9], 6 nM; in [10], 30000 nM.
On to `CC1(C)C(/C=C/C2=C(Oc3ccc(CCC(=O)NCCOCCOCCOCCOCCOCCOCCOCCOCCOCCOCCOCCNC(=O)CCS(=O)(=O)c4c(F)c(F)c(S(N)(=O)=O)c(F)c4NC4CCCCCCC4)cc3)C(=C/C=C3\N(CCCCS(=O)(=O)[O-])c4ccccc4C3(C)C)/CCC2)=[N+](CCCCS(=O)(=O)[O-])c2ccccc21.[Na+]` [GZ22-4, Sodium 4-((Z)-2-((E)-2-(2-(4-(43-((2-(Cyclooctylamino)-3,5,6-trifluoro-4-sulfamoylphenyl)sulfonyl)-3,41-dioxo-7,10,13,16,19,22,25,28,31,34,37-undecaoxa-4,40-diazatritetracontyl)phenoxy)-3-((E)-2-(3,3-dimethyl-1-(4-sulfonatobutyl)-3H-indol-1-ium-2-yl)vinyl)cyclohex-2-en-1-ylidene)ethylidene)-3,3-dimethylindolin-1-yl)butane-1-sulfonate], for which the Kd was 2000 nM in assay [1]; 5 nM in [2]; 200 nM in assay [3]; 500 nM in assay [4]; 80 nM in assay [5]; 40 nM in assay [6]. Moreover, the equilibrium dissociation constant (Kd) is 8000 nM in assay [7]; 0.17 nM and 0.2 nM in assay [8]; 1.5 nM in assay [9]; 5000 nM in assay [10].

By Kd is commonly meant the equilibrium constant for the complex coming apart.

For the origin of these results see PMC11191402, “High-Affinity NIR-Fluorescent Inhibitors for Tumor Imaging via Carbonic Anhydrase IX” (Bioconjugate Chemistry, 2024).
